Results taken from patent publication US20240158418A1 (C4 Therapeutics, Inc., priority 2021, published 2024).
Entries after “also recorded” stand apart in the source; their conditions may differ.

Experiments:
[1] = test system: intracranial NCI-H1975-luciferase expressing NSCLC tumors; experiment: NCI-H1975-luc intracranial tumor model (intracranial injection into forebrain); format: in vivo, female BALB/c nude mice; settings: 100 mg/kg/day PO BID
Experimental: Compound 1 efficacy in a NCI-H1975-luciferase expressing intracranial tumor model established by injecting tumor cells intracranially into the mouse forebrain was evaluated at […]: 100 mg/kg/day. Compound 1 was administered BID (twice a day) orally (PO). Eight mice were used per group.
2×10^5 luciferase-expressing NCI-H1975-luc tumor cells suspended in 2 μL RPMI-1640 media were injected into the right forebrain of female BALB/c nude mice. Tumor growth was monitored using imaging analysis. Mice were injected intraperitoneally with 15 mg/mL of D-luciferin and anesthetized with 1-2% isoflurane inhalation. 10 minutes post luciferin injection, mice were imaged using IVIS Lumina III (Perkin Elmer) and total bioluminescence signal (BLI, photons/s) was measured in a region of interest (ROI). BLI from ROI were quantified and used as an indicator of tumor burden. 7 days post tumor cell inoculation mice were randomized into groups of 8 with a mean BLI of 27×10^6 photons/s. All agents were administered to mice bearing NCI-H1975-luc brain tumors on day 8. […] Body weight and MTV were measured on a 2× weekly schedule. Statistical analysis was calculated using the Mann-Whitney U test. Data are expressed as bioluminescent signal (photons/s).

EGFR L858R [2] = target: T1, EGFR L858R (Homo sapiens, UniProt P00533, L858R); experiment: Western blot NCI-H3255, Compound 1 with or without osimertinib: EGFR-L858R; format: cell-based; settings: NCI-H3255, six hours, 0-1,500 nM, presence and absence of 1,500 nM osimertinib
Text: (§1) The compound bearing solutions were formulated to achieve a 0.1% final concentration of DMSO. […] Antibodies used in western blot were purchased from the following vendors: EGFR-L858R specific antibody (CST 3197), pY1068 EGFR (CST 2234), pERK (CST 4370), ERK (CST 4695), vinculin (Millipore 05-386).

EGFR L858R [3] = target: T1, EGFR L858R; experiment: KINOMEscan scanMAX, EGFR-L858R; format: binding; parameters: purchased Eurofins DiscoverX KINOMEscan scanMAX; host or cells: E. coli BL21-derived (T7 phage) or HEK-293; settings: 100 nM
Experimental: (§2) Kinome-wide binding selectivity of CFT8919 was assessed via the KINOMEscan scanMAX assay at Eurofins DiscoverX (Freemont, CA, USA). Compound was tested at 100 nM against a diverse panel of 468 kinases. The size of circles was mapped onto the kinase phylogenetic tree utilizing DiscoverX TREEspot using <50% of % control as a cutoff.
(§3) For most assays, kinase-tagged T7 phage strains were grown in parallel in 24-well blocks in an E. coli host derived from the BL21 strain. E. coli were grown to log-phase and infected with T7 phage from a frozen stock (multiplicity of infection=0.4) and incubated with shaking at 32° C. until lysis (90-150 minutes). The lysates were centrifuged (6,000×g) and filtered (0.2 μm) to remove cell debris. The remaining kinases were produced in HEK-293 cells and subsequently tagged with DNA for qPCR detection. Streptavidin-coated magnetic beads were treated with biotinylated small molecule ligands for 30 minutes at room temperature to generate affinity resins for kinase assays. The liganded beads were blocked with excess biotin and washed with blocking buffer (SeaBlock (Pierce), 1% BSA, 0.05% Tween 20, 1 mM DTT) to remove unbound ligand and to reduce non-specific phage binding. […] Test compounds were prepared as 40× stocks in 100% DMSO and directly diluted into the assay. […] The kinase concentration in the eluates was measured by qPCR.

[4] = test system: intracranial NCI-H1975-luciferase expressing tumors; experiment: NCI-H1975-luc intracranial tumor model (intracarotid artery injection): BLI, body weight, survival; format: in vivo, female BALB/c nude mice; settings: intracranial model with intracarotid implantation, oral dosing
Experimental: Female BALB/c nude mice were inoculated by intracarotid injection with NCI-H1975-luc cells (1×10^5 in 100 μL PBS) for tumor development. Tumor growth was monitored using imaging analysis. Tumor-bearing mice were weighed and injected intraperitoneally with luciferin at a dose of 150 mg/kg and anesthetized with a mixture gas of oxygen and isoflurane. 10 minutes post luciferin injection, mice were imaged using IVIS Lumina III machine and total bioluminescence signal (BLI, photons/s) was measured in a region of interest (ROI). BLI from ROI were quantified and used as an indicator of tumor burden. Twenty days post tumor cell inoculation mice were randomized into groups of 6 with a mean BLI of 1.08×10^6 photons/s. Compound 1 was dosed orally (PO) twice a day at 50 mg/kg and was formulated in 20% PEG400+80% (25% SBECD, “sulfobutylether-β-cyclodextrin”) in double distilled H2Om which was also used as the vehicle control. Body weight and MTV were measured on a 2× weekly schedule. Survival data was also measured and is represented as median survival time±SEM.

pY1068 EGFR = target: T2, pY1068 EGFR (Homo sapiens, UniProt P00533, L858R); experiment: Western blot NCI-H3255, Compound 1 with or without osimertinib: phospho-EGFR; format: cell-based; settings: NCI-H3255, six hours, 0-1,500 nM, presence and absence of 1,500 nM osimertinib
T2 construct: NCI-H3255 (harboring EGFR heterozygous L858R mutation); host or cells: NCI-H3255
Text: as §1

EGFR-L861Q = target: T3, EGFR-L861Q (Homo sapiens, UniProt P00533, L861Q); experiment: KINOMEscan scanMAX, EGFR-L861Q; format: binding; settings: 100 nM
T3 construct: purchased Eurofins DiscoverX KINOMEscan scanMAX; host or cells: E. coli BL21-derived (T7 phage) or HEK-293
Experimental: as §2, §3

EGFR L858R [5] = target: T1, EGFR L858R; experiment: Differential scanning fluorimetry (DSF); format: binding; settings: EGFR (L858R) 10 μM, compound 100 μM, vs apo protein +DMSO TM = 45.4° C.
Experimental: The protein was incubated at 10 μM in buffer (100 mM HEPES pH 7.5 and 150 mM NaCl) with DMSO to determine the stability of the protein alone. In addition, the protein (10 μM) was incubated with each compound (100 μM) individually, or in combination, for 30 min on ice. Protein stability was measured in the presence of 4×SYPRO™ Orange dye (Thermo Fisher) using a ViiA7 Real-Time PCR System (Thermo Fisher) adapted for thermal melts. Reactions of 20 μL were run in quadruplicate using Microamp Optical 384-well reaction plates (Applied Biosystems). Temperature was increased by 0.5° C. intervals from 25° C. to 99° C. and fluorescence intensity was measured. In-house curve fitting analysis software was used to calculate the thermal melting point (TM) of the protein in each reaction.

O=C1CC[C@H](Nc2ccc(N3CCC(O)(CC(=O)N4CC5(C4)CN(c4ccc(-c6cc(F)c7c(c6)C(=O)N(C(C(=O)Nc6nccs6)c6ncn8c6CCC8)C7)cc4)C5)CC3)c(F)c2)C(=O)N1 (stereo partly drawn) [Compound 1, 2-(6,7-dihydro-5H-pyrrolo[1,2-c]imidazol-1-yl)-2-[6-[4-[2-[2-[1-[4-[[(3S)-2,6-dioxo-3-piperidyl]amino]-2-fluoro-phenyl]-4-hydroxy-4-piperidyl]acetyl]-2,6-diazaspiro[3.3]heptan-6-yl]phenyl]-4-fluoro-1-oxo-isoindolin-2-yl]-N-thiazol-2-yl-acetamide]
Statistical Significance Compared to Vehicle ([1]; NCI-H1975-luc cells intracranial): 0.001
efficacy on NCI-H1975-luc BLI (tumor burden) ([1]; intracranial forebrain model, 100 mg/kg/day): reduced tumor volume; also recorded: tumor regression
EGFR-L858R degradation (western blot) (EGFR L858R [2]): efficiently degraded
percent binding remaining (EGFR L858R [3]): < 50%
efficacy on NCI-H1975-luc BLI (tumor burden) [4]: tumor regression
phospho-EGFR inhibition (western blot) (pY1068 EGFR): inhibited
percent binding remaining (EGFR-L861Q): < 50%
ΔTm at 100 µM (EGFR L858R [5]): 5.8 °C
